Assay results from ChEMBL document CHEMBL4257493, “Discovery of 7-hydroxyaporphines as conformationally restricted ligands for beta-1 and beta-2 adrenergic receptors” (Medchemcomm, 2018).

Biological target: Beta-2 adrenergic receptor (Homo sapiens, UniProt P07550)
Assay: Displacement of [3H]-CGP-12177 from human beta2-adrenergic receptor

Beta-2 adrenergic receptor, sequence (P07550 whole entry): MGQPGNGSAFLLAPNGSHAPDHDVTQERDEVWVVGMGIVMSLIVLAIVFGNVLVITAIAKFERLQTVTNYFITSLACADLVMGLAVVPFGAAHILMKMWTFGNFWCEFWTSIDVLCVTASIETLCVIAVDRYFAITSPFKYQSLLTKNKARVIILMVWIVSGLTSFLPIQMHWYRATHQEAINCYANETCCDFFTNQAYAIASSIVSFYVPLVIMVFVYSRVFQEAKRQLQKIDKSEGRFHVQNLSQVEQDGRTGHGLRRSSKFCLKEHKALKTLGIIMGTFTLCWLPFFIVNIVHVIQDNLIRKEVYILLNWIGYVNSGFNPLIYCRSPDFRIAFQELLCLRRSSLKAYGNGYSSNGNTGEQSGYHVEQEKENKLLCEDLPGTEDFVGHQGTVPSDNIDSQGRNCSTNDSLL

| Compound | IC50 [µM] |
| --- | --- |
| COc1cc2c3c(c1OC)-c1ccccc1[C@H](O)[C@H]3NCC2 | 1.6 |
| COc1cc2c(cc1OC)[C@H]([C@H](O)c1ccccc1Cl)NCC2 | > 10 |
| COc1cc2c(cc1OC)[C@H]([C@H](O)c1ccccc1)NCC2 | > 10 |
